Test results taken from patent US8334313B2, “Ureido substituted benzoic acid compounds and their use for nonsense suppression and the treatment of disease” (PTC Therapeutics, Inc., priority 2002, dated 2012).

system: luciferase reporter construct containing a UGA premature termination codon; test: cell-based luciferase reporter assay (nonsense suppression / readthrough); parameters: key: *****: both extremely high potency and extremely high efficacy of protein synthesis; ****: extremely high potency of protein synthesis and very high efficacy; ****: very high potency of protein synthesis and extremely high efficacy; ***: both very high potency and very high efficacy of protein synthesis; **: very high potency of protein synthesis and significant efficacy; **: significant potency of protein synthesis and very high efficacy; *: significant potency and efficacy of protein synthesis; conditions: ranking combining potency and efficacy of protein synthesis; UGA luciferase reporter stably transfected in 293T Human Embryonic Kidney cells
Experimental: Activity measurements in Table I were performed in a cell-based luciferase reporter assay (as described in Section 4.2) comprising a luciferase reporter construct containing a UGA premature termination codon that was stably transfected in 293T Human Embryonic Kidney cells. A small molecule (3-[3-(4-Isopropyl-phenyl)-2,5-dioxoimidazolidin-1-yl]-benzoic acid) known to allow readthrough of premature termination codons, was used as an internal standard. Activity measurements are based on the qualitative relation between the minimum concentration of compound required to produce a given protein in a cell (potency) and the maximum amount of protein produced by the cell (efficacy). Potency and efficacy activities are ranked as either extremely high, very high or significant.
The test compounds identified in the nonsense suppression assay (for convenience referred to herein as a “lead” compound) can be tested for biological activity using host cells containing or engineered to contain the target RNA element coupled to a functional readout system. For example, the lead compound can be tested in a host cell engineered to contain the RNA with the premature translation termination codon controlling the expression of a reporter gene. In this example, the lead compounds are assayed in the presence or absence of the RNA with the premature translation termination codon. Compounds that modulate premature translation termination and/or nonsense-mediated mRNA decay in vivo will result in increased expression of the full-length gene, i.e., past the premature termination codon. Alternatively, a phenotypic or physiological readout can be used to assess activity of the target RNA with the premature translation termination codon in the presence and absence of the lead compound. Both the in vitro and in vivo nonsense suppression assays used herein and as described in International Patent Publication WO 01/44516, which is incorporated by reference in its entirety, can be used to identify lead compounds can also be used to determine an EC50 for the lead compounds.
A stable cell line harboring the […] nonsense-containing luciferase gene is treated with a test compound. Cells are grown in standard medium supplemented with 1% penicillin-streptomycin (P/S) and 10% fetal bovine serum (FBS) to 70% confluency and split 1:1 the day before treatment. The next day, cells are trypsinized and 40,000 cells are added to each well of a 96-well tissue culture dish. Serial dilutions of each compound are prepared to generate a six-point dose response curve spanning 2 logs ([…]). The final concentration of the DMSO solvent remains constant at 1% in each well. Cells treated with 1% DMSO serve as the background standard, and cells treated with gentamicin serve as a positive control.

| Structure (SMILES) | Activity |
| --- | --- |
| CN1CCN(C(=O)COc2ccc(N3CCN(c4cccc(C(=O)O)c4)C3=O)cc2)CC1 [Compound 78, 3-(3-{4-[2-(4-Methyl-piperazin-1-yl)-2-oxo-ethoxy]-phenyl}-2-oxo-imidazolidin-1-yl)-benzoic acid] | * |
| O=C(O)c1cccc(N2C(=O)CN(CC3CCCCC3)C2=O)c1 [Compound 6, 3-(3-cyclohexylmethyl-2,5-dioxo-imidazolidin-1-yl)-benzoic acid] | * |
| O=C(O)c1cccc(N2CCN(c3ccc4c(c3)OCCO4)C2=O)c1 [Compound 42, 3-[3-(2,3-Dihydro-benzo[1,4]dioxin-6-yl)-2-oxo-imidazolidin-1-yl]-benzoic acid] | ***** |
| CCOc1ccc(N2CC(=O)N(c3cccc(C(=O)O)c3)C2=O)cc1 [Compound 27, 3-[3-(4-Ethoxy-phenyl)-2,5-dioxo-imidazolin-1-yl]-benzoic acid] | * |
| O=C(O)c1cccc(N2CCN(c3ccc(OC(F)(F)F)cc3)C2=O)c1 [Compound 38, 3-[2-Oxo-3-(4-trifluoro-methoxy-phenyl)-imidazolidin-1-yl]-benzoic acid] | ***** |
| CC(C)c1ccc(N2C(=O)CN(c3cccc(C(=O)O)c3)C2=O)cc1 [Compound 9, 3-[3-(4-isopropyl-phenyl)-2,4-dioxo-imidazolidin-1-yl]-benzoic acid] | ** |
| O=C(O)c1cccc(N2CCN(c3ccc4c(c3)OC(F)(F)C(F)(F)O4)C2=O)c1 [Compound 51, 3-[2-Oxo-3-(2,2,3,3-tetrafluoro-2,3-dihydro-benzo[1,4]dioxin-6-yl)-imidazolidin-1-yl]-benzoic acid] | ***** |
| CN(C)c1ccc(N2CCN(c3cccc(C(=O)O)c3)C2=O)cc1 [Compound 47, 3-[3-(4-Dimethylamino-phenyl)-2-oxo-imidazolidin-1-yl]-benzoic acid] | ***** |
| O=C(O)c1cccc(N2C(=O)CN(c3ccc(-c4ccccc4)cc3)C2=O)c1 [Compound 2] | *** |
| COc1ccc(N2CCN(c3cccc(C(=O)O)c3)C2=O)cc1 [Compound 49, 3-[3-(4-Methoxy-phenyl)-2-oxo-imidazolidin-1-yl]-benzoic acid] | **** |
| O=C(O)c1cccc(N2CCN(c3ccc(C(F)(F)F)cn3)C2=O)c1 [Compound 72, 3-[2-Oxo-3-(5-trifluoromethyl-pyridin-2-yl)-imidazolidin-1-yl]-benzoic acid] | **** |
| O=C(NCc1ccc(Br)cc1)Nc1cccc(C(=O)O)c1 [Compound 20, 3-[3-(4-bromo-benzyl)-ureido]-benzoic acid] | * |
| O=C(O)c1cccc(N2C(=O)CN(c3ccc(I)cc3)C2=O)c1 [Compound 23, 3-[3-(4-iodo-phenyl)-2,5-dioxo-imidazolidin-1-yl]-benzoic acid] | *** |
| O=C(O)c1cccc(N2C(=O)CN(c3ccc(Br)cc3)C2=O)c1 [Compound 29, 3-[3-(4-Bromo-phenyl)-2,5-dioxo-imidazolidin-1-yl]-benzoic acid] | * |
| O=C(O)c1cccc(N2CC(=O)N(c3ccccc3F)C2=O)c1 [Compound 10, 3-[3-(2-fluoro-phenyl)-2,4-dioxo-imidazolidin-1-yl]-benzoic acid] | * |
| O=C(O)c1cccc(N2CCN(c3ccc(OC(F)F)cc3)C2=O)c1 [Compound 39, 3-[3-(4-Difluoromethoxy-phenyl)-2-oxo-imidazolidin-1-yl]-benzoic acid] | ***** |
| CC(C)(C)c1ccc(N2CC(=O)N(c3cccc(C(=O)O)c3)C2=O)cc1 [Compound 28, 3-[3-(4-tert-Butylphenyl)-2,5-dioxoimidazolidin-1-yl]-benzoic acid] | ** |
| O=C(O)c1cccc(N2CCN(c3cccs3)C2=O)c1 [Compound 73, 3-(2-Oxo-3-thiophen-2-yl-imidazolidin-1-yl)-benzoic acid] | **** |
| CC(C)Oc1ccc(N2CCN(c3cccc(C(=O)O)c3)C2=O)cc1 [Compound 40, 3-[3-(4-Isopropoxy-phenyl)-2-oxo-imidazolidin-1-yl]-benzoic acid] | ***** |

| Structure (SMILES) | Activity |
| --- | --- |
| O=C(O)c1cccc(N2C(=O)CN(CC3CCCO3)C2=O)c1 (centres unmarked) [Compound 13, 3-[2,5-dioxo-3-(tetrahydro-furan-2-ylmeethyl)-imidazolidin-1-yl]-benzoic acid] | * |
| CC(C)c1ccc(N2CC(=O)N(c3cccc(C(=O)O)c3)C2=O)cc1 [Compound 1, 3-[3-(4-isopropyl-phenyl)-2,5-dioxo-imidazolidin-1-yl]-benzoic acid] | *** |
| COc1ccccc1CN1CC(=O)N(c2cccc(C(=O)O)c2)C1=O [Compound 14, 3-[3-(2-methoxy-benzyl)-2,5-dioxo-imidazolidin-1-yl]-benzoic acid] | * |
| COc1ccc(N2CCN(c3ccc(C(F)(F)F)cc3)C2=O)cc1C(=O)O [Compound 57, 2-Methoxy-5-[2-oxo-3-(4-trifluoromethyl-phenyl)-imidazolidin-1-yl]-benzoic acid] | * |
| O=C(O)c1cccc(N2CC(=O)N(c3cccc(Cl)c3Cl)C2=O)c1 [Compound 24, 3-[3-(2,3-dichloro-phenyl)-2,4-dioxo-imidazolidin-1yl]-benzoic acid] | * |
| O=C(O)c1cccc(N2CCN(c3ccc(-n4cccc4)cc3)C2=O)c1 [Compound 46, 3-[2-Oxo-3-(4-pyrrol-1-yl-phenyl)-imidazolidin-1-yl]-benzoic acid] | ***** |
| O=C(O)c1cccc(N2CCN(c3cccc(OC(F)(F)F)c3)C2=O)c1 [Compound 64, 3-[2-Oxo-3-(3-trifluoromethoxy-phenyl)-imidazolidin-1-yl]-benzoic acid] | **** |
| O=C(O)c1ccc(F)c(N2CCN(c3ccc(C(F)(F)F)cc3)C2=O)c1 [Compound 55, 4-Fluoro-3-[2-oxo-3-(4-trifluoromethyl-phenyl)-imidazolidin-1-yl]-benzoic acid] | * |
| O=C(NCc1ccc(Cl)cc1Cl)Nc1cccc(C(=O)O)c1 [Compound 21, 3-[3-(2,4-dichloro-benzyl)-ureido]-benzoic acid] | * |
| CC(C)c1ccc(N2CCN(c3cccc(C(=O)O)c3)C2=O)cc1 [Compound 34, 3-[3-(4-Isopropyl-phenyl)-2-oxo-imidazolidin-1-yl]-benzoic acid] | ***** |
| CC(C)c1ccc(N(CC(=O)[O-])C(=O)Nc2cccc(C(=O)[O-])c2)cc1.[Na+].[Na+] [Compound 4, 3-[3-carboxymethyl-3-(4-isopropyl-phenyl)-ureido]-benzoic acid disodium salt] | *** |
| CC(C)c1ccc(N2CCN(c3cccc(C(=O)O)c3)C2=S)cc1 [Compound 60, 3-[3-(4-Isopropyl-phenyl)-2-thioxo-imidazolidin-1-yl]-benzoic acid] | **** |
| CN1CCN(c2ccc(N3CCN(c4cccc(C(=O)O)c4)C3=O)cc2)CC1 [Compound 76, 3-{3-[4-(4-Methyl-piperazin-1-yl)-phenyl]-2-oxo-imidazolidin-1-yl}-benzoic acid] | * |
| O=C(O)c1cc(N2CCN(c3ccc(C(F)(F)F)cc3)C2=O)ccc1Cl [Compound 54, 2-Chloro-5-[2-oxo-3-(4-trifluoromethyl-phenyl)-imidazolidin-1-yl]-benzoic acid] | **** |
| O=C(O)c1cccc(N2CCN(c3ccc(C(F)(F)F)cc3)C2=O)c1 [Compound 45, 3-[2-Oxo-3-(4-trifluoromethyl-phenyl)-imidazolidin-1-yl]-benzoic acid] | ***** |
| Cc1ccc(N2CCN(c3cccc(C(=O)O)c3)C2=O)cc1 [Compound 48, 3-(2-Oxo-3-p-tolyl-imidazolidin-1-yl)-benzoic acid] | ***** |
| Cc1ccc(C(=O)O)cc1N1CCN(c2ccc(C(F)(F)F)cc2)C1=O [Compound 80, 4-Methyl-3-[2-oxo-3-(4-trifluoromethyl-phenyl)-imidazolidin-1-yl]-benzoic acid] | * |
| O=C(O)c1cccc(N2CC(=O)N(c3ccc(Oc4ccccc4)cc3)C2=O)c1 [Compound 12, 3-[2,4-dioxo-3-(4-phenoxy-phenyl)-imidazolidin-1-yl]-benzoic acid] | * |
| O=C(O)c1cccc(N2CCN(c3cc(F)ccc3F)C2=O)c1 [Compound 67, 3-[3-(2,5-Difluoro-phenyl)-2-oxo-imidazolidin-1-yl]-benzoic acid] | ** |
